Data reported in patent US20240409585A1, “MACROCYCLIC IMMUNOMODULATORS” (priority 2021, published 2024).
Bridge positions count the residues as written; N and C are the ends. Square brackets hold non-standard residues; d marks the D form. Peptide text beside a SMILES is read from it. * marks the point of attachment. ξ: configuration not given here. Tyr(3-NO2) = N[C@@H](Cc1ccc(O)c([N+](=O)[O-])c1)C(=O)O; Phe(4-COOH) = N[C@@H](Cc1ccc(C(=O)O)cc1)C(=O)O; Bip = N[C@@H](Cc1ccc(-c2ccccc2)cc1)C(=O)O; Lys(Me3) = C[N+](C)(C)CCCC[C@H](N)C(=O)O; Phe(3-Cl) = N[C@@H](Cc1cccc(Cl)c1)C(=O)O; Phe(3-Me) = Cc1cccc(C[C@H](N)C(=O)O)c1; Val(3-OH) = CC(C)(O)[C@H](N)C(=O)O; d(hPhe) = N[C@H](CCc1ccccc1)C(=O)O; 4Pal = N[C@@H](Cc1ccncc1)C(=O)O; Cha = N[C@@H](CC1CCCCC1)C(=O)O; Cit = NC(=O)NCCC[C@H](N)C(=O)O; Ile(3ξ) = CCC(C)[C@H](N)C(=O)O; Thr(3ξ) = CC(O)[C@H](N)C(=O)O; Pip = O=C(O)[C@@H]1CCCCN1; Carboxymethyl = O=C(O)C*; NMeA = CN[C@@H](C)C(=O)O; Nle = CCCC[C@H](N)C(=O)O; Dab = NCC[C@H](N)C(=O)O; Nva = CCC[C@H](N)C(=O)O; Dap = NC[C@H](N)C(=O)O; Piv = CC(C)(C)C(=O)*; ξC = NC(CS)C(=O)O; Acm = CC(=O)NC*

What follows are compounds tested against T1, PE-labeled human PD-L1-Ig binding to Jurkat cell line over-expressing human PD-1 (Jurkat-PD-1) (Homo sapiens, UniProt Q15116) (assay: Jurkat-PD-1 Cell Binding High-Content Screening Assay (CBA): Method 1). Conditions: Jurkat HPDL1 PD1 IC50 (uM) (Method 1).
T1 construct: expressed in transfected cells; host or cells: Jurkat
T1 sequence (Q15116 25-288): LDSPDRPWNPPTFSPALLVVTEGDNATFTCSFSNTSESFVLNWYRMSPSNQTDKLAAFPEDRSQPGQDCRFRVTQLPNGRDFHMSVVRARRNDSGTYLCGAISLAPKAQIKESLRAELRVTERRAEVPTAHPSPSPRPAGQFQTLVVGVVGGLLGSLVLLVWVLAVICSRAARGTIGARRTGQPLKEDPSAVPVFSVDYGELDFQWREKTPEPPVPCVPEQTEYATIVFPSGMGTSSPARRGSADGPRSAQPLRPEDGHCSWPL
For `CCC(C)[C@@H]1NC(=O)[C@H](Cc2ccc(-c3ccccc3)cc2)NC(=O)[C@H](C(C)C)NC(=O)[C@H](Cc2cccc(C)c2)NC(=O)[C@H](CC(=O)O)NC(=O)[C@H](Cc2cccc(C)c2)NC(=O)[C@H](Cc2ccncc2)NC(=O)CSC[C@@H](C(=O)N[C@@H](CO)C(=O)O)NC(=O)[C@H](CO)NC(=O)[C@H](C(C)C)NC(=O)[C@H](CC2CCCCC2)NC(=O)[C@H](CCN)NC(=O)[C@@H](CC(C)C)NC(=O)[C@H](C)N(C)C1=O` (stereo partly drawn) [Compound 2233] ({CH2CO}-[4Pal][Phe(3-Me)]D[Phe(3-Me)]V[Bip][Ile(3ξ)][NMeA][dL][Dab][Cha]VSCS-OH; thioether N-14), the IC50 was 0.02 µM.

Same assay, conditions: Jurkat-hPD-1 cells, PE-labeled PD-L1-Ig 20 nM final; read-out: Jurkat HPDL1 PD1 IC50 (uM) (Method 1)
`CC(C)C[C@@H]1NC(=O)[C@H](CCCNC(=N)N)NC(=O)[C@@H](CC(C)C)NC(=O)[C@H](C)N(C)C(=O)[C@H](CCC(=O)O)NC(=O)[C@H](Cc2ccc(-c3ccccc3)cc2)NC(=O)[C@H](C(C)C)NC(=O)[C@H](Cc2c[nH]c3ccccc23)NC(=O)[C@H](CC(=O)O)NC(=O)[C@H](Cc2ccc(O)cc2)NC(=O)[C@H](CC(N)=O)NC(=O)CSC[C@@H](C(=O)N[C@@H](C)C(N)=O)NC(=O)[C@H](CO)NC(=O)[C@H](C(C)C)NC1=O` [Compound 1256] ({CH2CO}-NYDWV[Bip]E[NMeA][dL]RLVSCA-NH2; thioether N-14) gave an IC50 of 0.06 µM.
`CC(C)C[C@@H]1NC(=O)[C@H](CCN)NC(=O)[C@@H](CC(C)C)NC(=O)[C@H](C)N(C)C(=O)[C@H](CCCNC(=N)N)NC(=O)[C@H](Cc2ccc(-c3ccccc3)cc2)NC(=O)[C@H](C(C)C)NC(=O)[C@H](Cc2c[nH]c3ccccc23)NC(=O)[C@H](CC(=O)O)NC(=O)[C@H](Cc2ccc(OCC(=O)O)cc2)NC(=O)[C@H](Cc2ccncc2)NC(=O)CSC[C@@H](C(=O)N[C@@H](C)C(N)=O)NC(=O)[C@H]([C@@H](C)O)NC(=O)[C@H](C(C)C)NC1=O` [Compound 1443] ({CH2CO}-[4Pal]Y(Carboxymethyl)DWV[Bip]R[NMeA][dL][Dab]LVTCA-NH2; thioether N-14) gave an IC50 of 0.01 µM.
`CC(C)C[C@@H]1NC(=O)[C@H](CCCNC(=N)N)NC(=O)[C@@H](CCc2ccccc2)NC(=O)[C@H](C)N(C)C(=O)[C@H](CCCNC(=N)N)NC(=O)[C@H](Cc2ccc(-c3ccccc3)cc2)NC(=O)[C@H](C(C)C)NC(=O)[C@H](Cc2c[nH]c3ccccc23)NC(=O)[C@H](CC(=O)O)NC(=O)[C@H](Cc2ccc(O)cc2)NC(=O)[C@H](Cc2ccccc2)NC(=O)CSC[C@@H](C(=O)NCC(N)=O)NC(=O)[C@H](CO)NC(=O)[C@H](C(C)C)NC1=O` [Compound 1018] ({CH2CO}-FYDWV[Bip]R[NMeA][d(hPhe)]RLVSCG-NH2; thioether N-14) showed an IC50 of 0.12 µM.
`CCCC[C@@H]1NC(=O)[C@H](CCCNC(=N)N)NC(=O)[C@@H](CC(C)C)NC(=O)[C@H](C)N(C)C(=O)[C@H](C(C)C)NC(=O)[C@H](Cc2ccc(-c3ccccc3)cc2)NC(=O)[C@H](C(C)C)NC(=O)[C@H](Cc2c[nH]c3ccccc23)NC(=O)[C@H](CC(=O)O)NC(=O)[C@H](Cc2ccc(O)cc2)NC(=O)[C@H](Cc2ccccc2)NC(=O)CSC[C@@H](C(=O)N[C@@H](C)C(N)=O)NC(=O)[C@H]([C@@H](C)O)NC(=O)[C@H](C(C)C)NC1=O` [Compound 1502] ({CH2CO}-FYDWV[Bip]V[NMeA][dL]R[Nle]VTCA-NH2; thioether N-14) gave an IC50 of 0.1 µM.
In the case of `CC(=O)NCSC[C@H](NC(=O)C1CSCC(=O)N[C@@H](Cc2ccc(OCC(=O)O)cc2)C(=O)N[C@@H](CSCNC(C)=O)C(=O)N[C@@H](CC(=O)O)C(=O)N[C@@H](Cc2cccc(C)c2)C(=O)N[C@@H](CC(C)C)C(=O)N[C@@H](Cc2ccc(-c3ccccc3)cc2)C(=O)N[C@@H](C(C)C)C(=O)N(C)[C@@H](C)C(=O)N[C@H](CC(C)C)C(=O)N[C@@H](CC(N)=O)C(=O)N[C@@H](CC(C)C)C(=O)N[C@@H](C(C)C)C(=O)N[C@@H](CO)C(=O)N1)C(N)=O` (stereo partly drawn) [Compound 1889] ({CH2CO}-Y(Carboxymethyl)C(Acm)D[Phe(3-Me)]L[Bip]V[NMeA][dL]NLVS[ξC]C(Acm)-NH2; thioether N-14), the IC50 is reported as 0.03 µM.
`CC(C)C[C@@H]1NC(=O)[C@H](Cc2c[nH]c3ccccc23)NC(=O)[C@H](CC(=O)O)NC(=O)[C@H](Cc2ccc(O)cc2)NC(=O)[C@H](Cc2ccccc2)NC(=O)CSC[C@@H](C(=O)NCC(N)=O)NC(=O)[C@H](CO)NC(=O)[C@H](C(C)C)NC(=O)[C@H](CC(C)C)NC(=O)[C@H](CCN)NC(=O)[C@@H](CC(C)C)NC(=O)[C@H](C)N(C)C(=O)[C@H](C(C)C)NC(=O)[C@H](Cc2ccc(-c3ccccc3)cc2)NC1=O` [Compound 1472] ({CH2CO}-FYDWL[Bip]V[NMeA][dL][Dab]LVSCG-NH2; thioether N-14) was tested, and the IC50 was 0.01 µM.
For `CC(C)C[C@@H]1NC(=O)[C@H](CCCNC(=N)N)NC(=O)[C@H](Cc2cccc(Cl)c2)NC(=O)[C@H](C)N(C)C(=O)[C@H](CCCNC(=N)N)NC(=O)[C@H](Cc2ccc(-c3ccccc3)cc2)NC(=O)[C@H](C(C)C)NC(=O)[C@H](Cc2c[nH]c3ccccc23)NC(=O)[C@H](CC(=O)O)NC(=O)[C@H](Cc2ccc(O)cc2)NC(=O)[C@H](Cc2ccccc2)NC(=O)CSC[C@@H](C(=O)NCC(N)=O)NC(=O)[C@H](CO)NC(=O)[C@H](C(C)C)NC1=O` [Compound 1014] ({CH2CO}-FYDWV[Bip]R[NMeA][Phe(3-Cl)]RLVSCG-NH2; thioether N-14), the IC50 was 0.2 µM.
Work on `CCC(C)[C@@H]1NC(=O)[C@H](Cc2ccc(-c3ccccc3)cc2)NC(=O)[C@H](C(C)C)NC(=O)[C@H](Cc2cccc(C)c2)NC(=O)[C@H](CC(=O)O)NC(=O)[C@H](Cc2ccc(OCC(=O)O)cc2)NC(=O)[C@H](C(C)O)NC(=O)CSC[C@@H](C(N)=O)NC(=O)[C@H](C(C)O)NC(=O)[C@H](C(C)C)NC(=O)[C@H](CC2CCCCC2)NC(=O)[C@H](CCN)NC(=O)[C@@H](CC(C)C)NC(=O)[C@H](C)N(C)C1=O` (stereo partly drawn) [Compound 2250] ({CH2CO}-[Thr(3ξ)]Y(Carboxymethyl)D[Phe(3-Me)]V[Bip][Ile(3ξ)][NMeA][dL][Dab][Cha]V[Thr(3ξ)]C-NH2; thioether N-14) yielded an IC50 of 0.02 µM.
`Cc1cccc(C[C@@H]2NC(=O)[C@H](CC(=O)O)NC(=O)[C@H](Cc3ccc(OCC(=O)O)cc3)NC(=O)[C@H](C(C)O)NC(=O)CSC[C@@H](C(=O)N[C@@H](CCNC(=O)C(C)(C)C)C(N)=O)NC(=O)[C@H](Cc3cnc[nH]3)NC(=O)[C@H](C(C)(C)O)NC(=O)[C@H](CC3CCCCC3)NC(=O)[C@H](CCN)NC(=O)[C@@H](CC(C)C)NC(=O)[C@H](C)N(C)C(=O)[C@H](Cc3ccc(OCC(=O)O)cc3)NC(=O)[C@H](Cc3ccc(-c4ccccc4)cc3)NC(=O)[C@H](Cc3ccc(C(=O)O)cc3)NC2=O)c1` (stereo partly drawn) [Compound 2164] ({CH2CO}-[Thr(3ξ)]Y(Carboxymethyl)D[Phe(3-Me)][Phe(4-COOH)][Bip]Y(Carboxymethyl)[NMeA][dL][Dab][Cha][Val(3-OH)]HC[Dab](Piv)-NH2; thioether N-14) showed an IC50 of 0.05 µM.
In the case of `CCC[C@@H]1NC(=O)[C@H](C)N(C)C(=O)[C@H](C(C)C)NC(=O)[C@H](Cc2ccc(-c3ccccc3)cc2)NC(=O)[C@H](CC(C)C)NC(=O)[C@H](Cc2c[nH]c3ccccc23)NC(=O)[C@H](CC(=O)O)NC(=O)[C@H](Cc2ccc(O)cc2)NC(=O)[C@H](Cc2ccccc2)NC(=O)CSC[C@@H](C(=O)NCC(N)=O)NC(=O)[C@H](CO)NC(=O)[C@H](C(C)C)NC(=O)[C@H](CC(C)C)NC(=O)[C@H](CC(N)=O)NC1=O` [Compound 1803] ({CH2CO}-FYDWL[Bip]V[NMeA][Nva]NLVSCG-NH2; thioether N-14), the IC50 is reported as 0.2 µM.
`Cc1cccc(C[C@@H]2NC(=O)[C@H](CC(=O)O)NC(=O)[C@H](Cc3ccc(OCC(=O)O)cc3)NC(=O)[C@H](CN)NC(=O)CSC[C@@H](C(N)=O)NC(=O)[C@H](CCC(N)=O)NC(=O)[C@H](C(C)C)NC(=O)[C@H](CC3CCCCC3)NC(=O)[C@H](CCN)NC(=O)[C@@H](CC(C)C)NC(=O)[C@@H]3CCCCN3C(=O)[C@H](Cc3ccc(OCC(=O)O)cc3)NC(=O)[C@H](Cc3ccc(-c4ccccc4)cc3)NC(=O)[C@H](Cc3ccc(OCC(=O)O)cc3)NC2=O)c1` [Compound 1896] ({CH2CO}-[Dap]Y(Carboxymethyl)D[Phe(3-Me)]Y(Carboxymethyl)[Bip]Y(Carboxymethyl)[Pip][dL][Dab][Cha]VQC-NH2; thioether N-14) was tested, and the IC50 was 0.19 µM.
`Cc1cccc(C[C@@H]2NC(=O)[C@H](CC(=O)O)NC(=O)[C@H](Cc3ccc(O)cc3)NC(=O)[C@H](CC(N)=O)NC(=O)CSC[C@@H](C(=O)N[C@@H](CCN)C(N)=O)NC(=O)[C@H]([C@@H](C)O)NC(=O)[C@H](C(C)(C)O)NC(=O)[C@H](CC3CCCCC3)NC(=O)[C@H](CCN)NC(=O)[C@@H](CC(C)C)NC(=O)[C@H](C)N(C)C(=O)[C@H](CCCNC(N)=O)NC(=O)[C@H](Cc3ccc(-c4ccccc4)cc3)NC(=O)[C@H](C(C)(C)O)NC2=O)c1` [Compound 1705] ({CH2CO}-NYD[Phe(3-Me)][Val(3-OH)][Bip][Cit][NMeA][dL][Dab][Cha][Val(3-OH)]TC[Dab]-NH2; thioether N-14) was tested, and the IC50 was 0.03 µM.
Compound `CCC(C)[C@@H]1NC(=O)[C@H](Cc2ccc(-c3ccccc3)cc2)NC(=O)[C@H](C(C)C)NC(=O)[C@H](Cc2cccc(C)c2)NC(=O)[C@H](CC(=O)O)NC(=O)[C@H](Cc2ccc(OCC(=O)O)cc2)NC(=O)[C@H](CCCC[N+](C)(C)C)NC(=O)CSCC(C(=O)NCC(N)=O)NC(=O)[C@H](CO)NC(=O)[C@H](C(C)C)NC(=O)[C@H](CC(C)C)NC(=O)[C@H](CC(N)=O)NC(=O)[C@@H](CC(C)C)NC(=O)[C@H](C)N(C)C1=O` (stereo partly drawn) [Compound 2064] ({CH2CO}-[Lys(Me3)]Y(Carboxymethyl)D[Phe(3-Me)]V[Bip][Ile(3ξ)][NMeA][dL]NLVS[ξC]G-NH2; thioether N-14) has an IC50 of 0.04 µM.
`CC(C)C[C@@H]1NC(=O)[C@H](CCN)NC(=O)[C@@H](CC(C)C)NC(=O)[C@H](C)N(C)C(=O)[C@H](CCCNC(=N)N)NC(=O)[C@H](Cc2ccc(-c3ccccc3)cc2)NC(=O)[C@H](C(C)C)NC(=O)[C@H](Cc2c[nH]c3ccccc23)NC(=O)[C@H](CC(=O)O)NC(=O)[C@H](Cc2ccc(O)c([N+](=O)[O-])c2)NC(=O)[C@H](Cc2ccccc2)NC(=O)CSC[C@@H](C(=O)N[C@@H](C)C(N)=O)NC(=O)[C@H]([C@@H](C)O)NC(=O)[C@H](C(C)C)NC1=O` [Compound 1145] ({CH2CO}-F[Tyr(3-NO2)]DWV[Bip]R[NMeA][dL][Dab]LVTCA-NH2; thioether N-14) was tested, and the IC50 was 0.02 µM.
